In assay [1] the target is T1, ASK2 (Homo sapiens (Human), UniProt O95382). In words: ASK2 biochemical assay (AlphaScreen technology, MKK7 phosphorylation). To be noted: 150 μM ATP, 400 nM MKK7, 2 nM ASK2. From the text:
ASK1 and ASK2 biochemical activities were also quantified using AlphaScreen technology which measures the degree of phosphorylation of a protein substrate (MKK7). AlphaScreen technology is based on the binding of a substrate to two types of beads, acceptor and donor. Binding to one bead is through the tag of the substrate protein. Binding of the second bead is through phosphospecific binding of antibody to the phosphosite of the substrate. This forms a sandwich, with the acceptor and donor beads in close proximity. When the donor beads are excited by light in the 680 nm range, a singlet oxygen is released and causes emission of light from the acceptor in the 620 nm range which can be detected using a suitable plate reader.
The phosphorylation site on MKK7 (Ser271/Thr275) is then recognised by a phosphospecific antibody. The phosphospecific antibody is bound to the AlphaScreen acceptor beads through a Protein-A interaction. Phosphorylation of MKK7 by ASK1 or ASK2 subsequently facilitates the bringing together of the donor and acceptor beads into close proximity whereupon the transfer of the singlet oxygen leads to the generation of the AlphaScreen signal.
The assay was configured to run using the following conditions (final concentrations): 150 μM ATP; 400 nM MKK7; 0.8 nM ASK1 and 2 nM ASK2.
100 nL of test compound (starting concentration 6 μM, 11 concentrations with 3 fold serial dilutions) in 100% DMSO was added to low volume 384 well plates. 2.5 μl of ASK1 or ASK2 was added to each well except in the control wells to which 2.5 μl buffer was added. 2.5 μl of MKK7 solution was added to all wells. The plate was incubated for 60 minutes at room temperature. Protein-A acceptor beads and phospho-specific antibody were incubated for 30 minutes and then 2.5 μl of Protein-A acceptor beads/phospho-specific antibody mix (2.5 μg/ml acceptor beads final concentration and 1/800 antibody final dilution) was added to each well. […] The plate was incubated for a further 60 minutes at room temperature, following which the plate was read on a Perkin Elmer Enspire plate reader. […]

Assay [2] deals with T1, ASK2. In words: ASK2 biochemical assay (IMAP technology). To be noted: 25 nM hASK2. From the text: IMAP® technology provides a homogeneous assay applicable to a wide variety of kinases, phosphatases, and phosphodiesterases without regard for substrate peptide sequence. The assay is a simple mix-and-read procedure allowing accurate determination of enzyme activity. Based on the specific, high-affinity interaction of phospho groups with trivalent metal-containing nanoparticles (beads), IMAP is a generic, non-antibody-based platform to assess kinase, phosphatase, and phosphodiesterase activity. An enzyme reaction is performed using fluorescently labeled substrate. Addition of the IMAP Binding System stops the enzyme reaction and initiates binding of the beads to phosphorylated substrates. Binding of the substrate to the beads, which correlates to enzyme activity, can be detected using either FP or TR-FRET as a readout.
KIT IMAP FP, Cat. No. R8127; Reaction Buffer-Tween (5× conc.), Molecular Devices, Cat. No. R7436; Diluted 1:5 with H2O and containing DTT (1 mM from 1M stock); Progressive Binding Buffer (PBB) A (5× conc.), Molecular Devices, Cat. No. R7282; Progressive Binding Reagent (PB Reagent), Molecular Devices, Cat. No. R7284; Enzyme Solution (containing 2× Ask1 in Reaction buffer); Substrate Solution (containing 2× peptide substrate in Reaction buffer, and 2×150 μM ATP in Reaction buffer); Bead Buffer (Progressive Binding Buffer A diluted 1:5 with H2O); Bead Solution (Bead Buffer containing 1:200 Progressive Binding Reagent (2×))
100 nL of test compound in 100% DMSO was added to 384-well plates. […] The plates were then incubated for 2 h at room temperature after which time the plates were read on a Perkin Elmer EnVision plate reader.
Calculation of IC50 data, curves and QC analysis was made by using Excel tools and GraphPadPrism software, v. […] Calculated results: Calc 1: mP value for FP measurement=1000*(S−G*P)/(S+G*P) where S=<detector 2 or FP-BodipyTAMRA_Ex531-Em579-optimized(1) channel 2>P=<detector 1 or FP-BodipyTAMRA_Ex531-Em579-optimized(1) channel 1>G=G-factor. […] Top constrain is used only if top values are not correctly calculated. […]

The structures appear in SMILES notation.

T1 sequence (O95382 whole entry): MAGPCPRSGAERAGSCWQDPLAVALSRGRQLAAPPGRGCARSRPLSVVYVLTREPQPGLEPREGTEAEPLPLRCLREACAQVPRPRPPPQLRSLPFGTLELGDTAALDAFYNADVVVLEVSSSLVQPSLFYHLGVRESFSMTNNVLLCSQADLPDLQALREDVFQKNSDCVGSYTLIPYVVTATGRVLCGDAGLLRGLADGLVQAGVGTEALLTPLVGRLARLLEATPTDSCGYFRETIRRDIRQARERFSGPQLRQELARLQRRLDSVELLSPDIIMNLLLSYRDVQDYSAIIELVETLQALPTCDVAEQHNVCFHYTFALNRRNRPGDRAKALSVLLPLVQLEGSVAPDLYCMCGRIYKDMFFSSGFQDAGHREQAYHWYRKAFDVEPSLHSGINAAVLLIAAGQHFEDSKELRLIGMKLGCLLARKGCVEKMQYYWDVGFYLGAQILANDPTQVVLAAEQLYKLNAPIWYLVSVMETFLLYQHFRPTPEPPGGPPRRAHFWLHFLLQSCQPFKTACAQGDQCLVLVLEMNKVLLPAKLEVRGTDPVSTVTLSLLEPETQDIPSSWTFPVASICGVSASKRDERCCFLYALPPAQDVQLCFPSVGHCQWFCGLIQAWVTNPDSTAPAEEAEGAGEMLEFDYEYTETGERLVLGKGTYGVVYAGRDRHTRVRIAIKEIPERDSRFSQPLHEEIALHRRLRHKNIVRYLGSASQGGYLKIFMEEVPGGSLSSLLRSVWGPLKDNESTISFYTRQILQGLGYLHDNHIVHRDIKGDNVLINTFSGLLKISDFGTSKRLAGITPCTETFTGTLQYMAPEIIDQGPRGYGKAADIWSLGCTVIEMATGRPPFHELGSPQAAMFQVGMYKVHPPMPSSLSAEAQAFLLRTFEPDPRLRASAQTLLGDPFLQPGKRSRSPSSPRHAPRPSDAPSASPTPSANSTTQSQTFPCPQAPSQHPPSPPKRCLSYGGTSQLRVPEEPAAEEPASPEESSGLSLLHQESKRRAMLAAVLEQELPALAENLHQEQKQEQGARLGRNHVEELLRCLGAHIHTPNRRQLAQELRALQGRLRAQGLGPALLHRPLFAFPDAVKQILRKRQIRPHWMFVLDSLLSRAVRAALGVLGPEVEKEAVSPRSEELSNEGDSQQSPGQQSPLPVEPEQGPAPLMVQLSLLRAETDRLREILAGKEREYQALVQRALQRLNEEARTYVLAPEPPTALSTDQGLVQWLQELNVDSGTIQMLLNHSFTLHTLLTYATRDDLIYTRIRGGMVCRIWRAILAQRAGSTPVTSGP

Regarding `Cc1c[nH]c2ncnc(N3CCC(NC(=O)c4cc(N)ncc4Cl)CC3)c12` [Compound 3, 2-amino-5-chloro-N-[1-(5-methyl-7H-pyrrolo[2,3-d]pyrimidin-4-yl)-4-piperidyl]-pyridine-4-carboxamide], at ASK2 [1], the “Inhibition (pIC50) ASK2” value is on record as 7.8.

Turning to `Nc1cc(C(=O)NC2CCN(c3ncnc4[nH]cc(Cl)c34)CC2)ccn1` [Compound 4, 2-amino-N-[1-(5-chloro-7H-pyrrolo[2,3-d]pyrimidin-4-yl)-4-piperidyl]pyridine-4-carboxamide], the results for the “Inhibition (pIC50) ASK2” value at ASK2 [2] and at ASK2 [1] were 8.19 and 8.2, respectively.

`Cc1c[nH]c2ncnc(N3CCC(NC(=O)c4cc(N)ncc4F)CC3)c12` [Compound 1, 2-amino-5-fluoro-N-[1-(5-methyl-7H-pyrrolo[2,3-d]pyrimidin-4-yl)-4-piperidyl]pyridine-4-carboxamide]: the “Inhibition (pIC50) ASK2” value was found to be 7.96 on ASK2 [2] and 7.71 at ASK2 [1].

Take `Cc1cnc(N)cc1C(=O)NC1CCN(c2ncnc3[nH]cc(C)c23)CC1` [Compound 2, 2-amino-5-methyl-N-[1-(5-methyl-7H-pyrrolo[2,3-d]pyrimidin-4-yl)-4-piperidyl]pyridine-4-carboxamide]: the “Inhibition (pIC50) ASK2” value on ASK2 [2] was determined as 8.08.

The values above are taken from patent US11136325B2, “Pyrrolopyrimidine and pyrrolopyridine derivatives” (GALAPAGOS NV, priority 2017, dated 2021).
